We go through one compound from patent US10987319B2, “TFEB activator C1 ameliorates app and tau pathology and rescues cognitive deficits in neurodegenerative diseases” (Hong Kong Baptist University, priority 2018, dated 2021).

Read-outs that look alike come from different tables or passages of the source.

The nature of data set [1]: Distribution of C1 in brain regions, plasma and CSF of rats 30 min after oral dosing. It counts as in vivo. Conditions: Sprague-Dawley, rat, SD rats, 30 min after oral 10 mg/kg. The method, then: Male C57BL/6 mice and Sprague Dawley rats were purchased from Chinese University of Hong Kong, acclimatized in Hong Kong Baptist university animal house for 2 weeks. Animals were kept for 18 h fasting before the experiment. Curcumin analog C1 and curcumin were suspended in 1% CMC-Na at 10 mg/kg, given to animals through oral route at 10 ml/kg dosing volume. Blood (by heart puncture) and brain samples were collected starting from 0.25, 0.5, 1, 2, 4, 6, 8, 12 and 24 h time points (n=3 for each time point) under chloral hydrate anesthesia at 500 mg/kg (I.P. injection). Based on mice pharmacokinetic study, rat blood, brain and cerebrospinal fluids (CSF) were collected at 30 minutes time point (n=4). All blood samples were collected in heparinized tubes. Plasma was collected by centrifuging at 10,000 rpm for 10 minutes at 4° C. Blood, brain and CSF were stored in −80° C. until further analysis.
Cerebrospinal fluid (CSF) was collected by puncturing Cisterna Magna. Briefly, stereotaxic apparatus (Stoelting, Wood Dale, USA) was used for CSF collection. The tip of CSF collection needle (21G) was placed at the center of stereotaxic apparatus ear bars contact and considered it as zero point. Then rats were anaesthetized with chloral hydrate at 500 mg/kg in saline through intra-peritoneal route. Rats were fixed on the stereotaxic apparatus with 3 cm elevated body position. Rat head was positioned at nearly 110° angle between stereotaxic apparatus frame and rat nose. Cisterna magna location was identified by a 3 mm^2 depressed area between the spine and occipital protuberance in mid-sagittal plane, at 10-12 mm approximate distance from ear. The collection needle was inserted into the Cisterna magna from zero point at A−P: −1.5±1 mm, M−L: 0 mm and D−V: not more than 4-6 mm (from the skin surface). The needle was connected to a 1 ml syringe through a silicon tube. By applying a gentle negative pressure through 1 ml syringe, 100 μl of CSF without any blood contamination was collected.
Whole brain and brain parts were homogenized with 2 weight/volumes of PBS (pH=3.2), spiked with 10 μl of internal standard salbutamol (200 ng/ml in methanol). The homogenate was liquid-liquid extracted with 1 ml of ethyl acetate. 50 μl of 0.5M sodium hydroxide was added to the brain homogenate for efficient C1 extraction. After vigorous sonication and vortex mixing, samples were centrifuged at 15,000 RPM for 10 min. The supernatant was collected and vacuum dried. The samples were reconstituted with 100 μl of mobile phase (0.1% formic acid in acetonitrile), vortex mixed and transferred to an amber colored sampler vial with plastic insert.
100 μl of plasma and CSF was mixed with 100 μl of PBS (pH=3.2), 10 μl of 0.05 M sodium hydroxide and spiked with 10 μl of salbutamol (200 ng/ml in methanol). The mixture was liquid-liquid extracted with 500 μl of ethyl acetate. After vigorous sonication and vortex mixing, samples were centrifuged at 15,000 RPM for 10 min at 4° C. The supernatant was collected and vacuum dried. The samples were reconstituted with 100 μl of mobile phase (0.1% formic acid in acetonitrile), vortex mixed and transferred to an amber colored sampler vial with plastic insert.
UPLC 1290 (Agilent technologies, CA, USA) with binary pump, autosampler system, column with thermostat, vacuum degasser and 6460 QQQ Mass spectrometer was used for compound detection. Chromatographic separation was achieved by waters BEH-C18 (1.7 μm, 2.1×50 mm) column maintained at 40° C. […]

A further data set concerns 5×FAD mice. In words: Contextual fear conditioning. It is filed as in vivo. The method, then:
Male 5×FAD mice were purchased from Jackson laboratories (Stock number 006554) and maintained at 23±2° C. temperature, 60±15% relative humidity with free access to food and water ad libitum. 5×FAD male mice were inbred with wild-type (WT, C57/BL6) female mice to produce heterozygous offspring. Offspring were genotyped to select 5×FAD (APP KM670/671NL (Swedish), APP I716V (Florida), APP V717I (London), PSEN1 M146L (A>C), PSEN1 L286V) gene mutations mice. Two months old WT and 5×FAD mice (male and female, n=10-14 per group) were treated daily with vehicle (1% sodium carbonyl methylcellulose [CMC-Na; Sigma-Aldrich, C5678]), curcumin analogue C1 (5 mg/kg, 10 mg/kg) or curcumin (50 mg/kg; Sigma-Aldrich, 08511) suspended in 1% CMC-Na by oral gavage for 4 months.
Contextual fear conditioning (CFC) was used to evaluate the fear memory reconsolidation of 5×FAD mice after treatment. The experiment was conducted 30 min after the drug treatment in ANY maze fear conditioning system under licensed ANY maze tracking system connected to a Windows XP computer. A digital camera was installed on each chamber and signals were sent to the computer for analysis. The experiments were conducted in two sound proof chambers. All the experiments were conducted with continuous 40 units of white noise and 40 lux white light. During training, mice were allowed to explore the platform for 2.5 min and then received 3 repeated footshock cycles (30 s) at 30 s intervals, each started with a cue tone (28 s, 1500 Hz) and ended by a footshock ([…], 2 s). On the second day the mice were allowed to explore the platform for 3 min followed by a cue tone (30 s, 1500 Hz) without footshock, and the freezing time was recorded. Contextual fear memory formation and the subsequent remote memory stabilization were evaluated by scoring freezing index (the absence of all but respiratory movement).

For the compound `COc1ccccc1/C=C/C(=O)/C=C/c1ccccc1OC` [Compound C1, 1,5-bis(2-methoxyphenyl)penta-1,4-dien-3-one], the concentration at 30 min in data set [1] (cerebrospinal fluid, read-out: level of C1 in CSF) is 102 ± 52.4 ng/mL; in data set [1] (frontal cortex, read-out: concentration of C1 in the frontal cortex), 58 ± 18.6 ng/g; in data set [1] (hippocampus, read-out: concentration of C1 in the hippocampus) it was 68.4 ± 21.7 ng/g; in data set [1] (plasma, read-out: level of C1 in plasma) it was 352 ± 21.4 ng/mL; in data set [1] (striatum, read-out: concentration of C1 in the striatum), 4.69 ± 2.19 ng/g. The “freezing index (memory reconsolidation) vs vehicle” value in the data set with 5×FAD mice (10 mg/kg oral daily 4 months, P<0.001) is on record as “significant memory reconsolidation”. The “memory improvement compared with curcumin” value in the data set with 5×FAD mice (C1 10 mg/kg vs curcumin 50 mg/kg) is on record as “better memory improvement than curcumin”.
